Experimental data taken from patent US12558386B2, “Methods and compositions to modulate antibiotic resistance and gastrointestinal microbiota” (OHIO STATE INNOVATION FOUNDATION, priority 2018, dated 2026).
≈ marks a conversion by molar mass, not a printed value. Where two headings read alike, the source gives them in different places.

Experiments:
[1] = tested on: E. coli CA-1; test: MIC assessment (TREK Sensititre); format: cell-based, Escherichia coli
Text: (§1) Bacterial strains. Multiple Amp^r strains from feces of broiler chickens without antibiotic treatment were recovered on Columbia blood Agar base (Becton, […] Dickinson and Company, Franklin Lakes, NJ) supplemented with 5% defibrinated sheep blood (Thermo Scientific™, Grand Island, NY).
(§2) Minimum inhibition concertation (MIC) assessment. A TREK Sensititre diagnostic system (Thermo scientific, Oakwood Village, OH, USA) was used to assess the AR phenotype and MIC of isolated strains. Protocols to use this system can be found on www.trekds.com. Cation-adjusted Mueller Hinton Broth (Becton, Dickinson and Company, MD, USA) was used as basic medium.

[2] = tested on: Lactobacillus crispatus CG-12; test: MIC assessment (TREK Sensititre); format: cell-based
Protocol: (§3) Multiple commensal bacterial strains from chicken feces were recovered from Columbia blood Agar base (Becton, […] Dickinson and Company, Franklin Lakes, NJ) supplemented with 5% defibrinated sheep blood (Thermo Scientific™, Grand Island, NY), and maintained in Columbia broth (Becton Dickinson and Company, Franklin Lakes, NJ) and propagated by anaerobic growth at 37° C. The strains were subjected to antibiotic susceptibility assessment followed by strain identification.
as §2

[3] = tested on: E. coli CA-20; test: MIC assessment (TREK Sensititre); format: cell-based, Escherichia coli
Protocol: as §1, with “NY). The strains were maintained in Columbia broth (Becton Dickinson and Company, Franklin Lakes, NJ), and propagated by aerobic growth at 37° C., and further subjected to strain identification and Minimum Inhibition Concentration (MIC) assessments.” for “NY).”
as §2

[4] = tested on: E. coli CA-4; test: MIC assessment (TREK Sensititre); format: cell-based, Escherichia coli
Protocol: as §1, with “NY). The strains were maintained in Columbia broth (Becton Dickinson and Company, Franklin Lakes, NJ), and propagated by aerobic growth at 37° C., and further subjected to strain identification and Minimum Inhibition Concentration (MIC) assessments.” for “NY).”
as §2

[5] = tested on: Three Amp^r E. coli; test: MIC assessment, summary for the three strains; format: cell-based, Escherichia coli; details: E. coli CA-1, CA-4 and CA-20 together
Protocol: as §1, with “NY). The strains were maintained in Columbia broth (Becton Dickinson and Company, Franklin Lakes, NJ), and propagated by aerobic growth at 37° C., and further subjected to strain identification and Minimum Inhibition Concentration (MIC) assessments.” for “NY).”
as §2

[6] = tested on: CG-12; test: Screening of antibiotic susceptible commensal strains on antibiotic agar plates; format: cell-based, Lactobacillus crispatus; details: 16 μg/mL tetracycline, 100 μg/mL erythromycin, 32 μg/mL ampicillin, 152 μg/mL sulfamethoxazole with 8 μg/mL trimethoprim
Protocol: as §3
Screening of antibiotic susceptible commensal strains. Recovered commensal strain isolates (over 1000 colonies) were spotted on Columbia broth (Becton, […] Dickinson and Company, Franklin Lakes, NJ) agar plates containing each of the four antibiotics for rapid assessment of phenotypic resistance profiles. Screened antibiotics included 16 μg/mL tetracycline (Sigma-Aldrich, St. Louis, MO, USA), 100 μg/mL erythromycin (Fisher Scientific, Waltham, MA, USA), 32 μg/mL ampicillin (Sigma-Aldrich), and 152 μg/mL sulfamethoxazole (Sigma-Aldrich) with 8 μg/mL trimethoprim (Sigma-Aldrich).

[7] = tested on: poultry fecal/gut microbiota (Proteobacteria, ESBL E. coli); test: Chicken study, metagenomics assessment #1 of pooled feces (FIG. 5); format: in vivo, chickens; details: Tween 80 treatment (Lanes 6, 8)
Text: FIGS. 5A and 5B show the impact of probiotic treatment on bacterial population in pooled feces of chickens. FIG. 5A) Phylum level; FIG. 5B) Class level. The treatments include Lane 1 (no, cocktail, no): no ESBL E. coli inoculation for 4 days, then inoculated with probiotic cocktail but no Tween 80; Lane 2 (no; no, no): no E. coli, no probiotics, no Tween 80; Lane 3: (probiotics, E. coli, no): probiotic cocktail for 4 days, followed by E. coli, but no Tween 80); Lane 4 (Yes, CG12, no): E. coli for 4 days, followed by Lb. crispatus (WZ12) for 4 days but no Tween 80; Lane 5 (yes, cocktail, no): E. coli for 4 days, followed by probiotic cocktail for 4 days, no Tween; Lane 6 ((yes, cocktail, yes): E. coli for 4 days, followed by probiotic cocktail for 4 days, with Tween 80; Lane 7 (Yes, no, no): E. coli for 4 days, saline for 4 days (no probiotics no Tween); Lane 8 (yes, no, yes): ESBL E. coli for 4 days, no probiotics but with Tween 80 for 4 days.
Animal Studies. The probiotics as disclosed herein were applied to chickens raised in a poultry facility, with the aim to examine the effectiveness of the treatment phenotypically and genetically (fecal microbiota) and physiologically (chickens); and to adjust receipt and procedure of feeding if necessary.
Treatments effective in modulating gut microbiota. […]

[8] = Escherichia coli, CA1, E. coli CA-1, read-out: MIC
[9] = Lactobacillus crispatus, CG12, L. crispatus CG-12, read-out: MIC
[10] = Escherichia coli, CA20, E. coli CA-20, read-out: MIC
[11] = Escherichia coli, CA4, E. coli CA-4, read-out: MIC

Molecule | MIC [1, 8] | MIC [2, 9] | MIC [3, 10] | MIC [4, 11] | resistance phenotype from MIC, in words [5] | other results
gentamicin |  |  |  |  |  | MIC ([1]; E. coli CA-1): 4 µg/mL; MIC ([2]; L. crispatus CG-12): 16 µg/mL; MIC ([3]; E. coli CA-20): 8 µg/mL; MIC ([4]; E. coli CA-4): 4 µg/mL
CN(C)[C@@H]1C(O)=C(C(N)=O)C(=O)[C@@]2(O)C(O)=C3C(=O)c4c(O)cccc4[C@@](C)(O)[C@H]3C[C@@H]12 [TET, tetracycline] | < 2 µg/mL | < 2 µg/mL | < 2 µg/mL | < 2 µg/mL |  | 
oxacillin + 2% NaC [OXA+] |  |  |  |  | high resistance | MIC ([1]; E. coli CA-1): >8 µg/mL; MIC ([2]; L. crispatus CG-12): <0.25 µg/mL; MIC ([3]; E. coli CA-20): 8 µg/mL; MIC ([4]; E. coli CA-4): >8 µg/mL
CO/N=C(\C(=O)N[C@@H]1C(=O)N2C(C(=O)O)=C(CSc3nc(=O)c(=O)[nH]n3C)CS[C@H]12)c1csc(N)n1 [AXO, ceftriaxone] | < 8 µg/mL | < 8 µg/mL | 16 µg/mL (≈ 28.9 µM) | < 8 µg/mL |  | resistance phenotype from MIC, in words ([3]; only E. coli CA-20): some resistant
CCCCCCCCCC(=O)N[C@@H](Cc1c[nH]c2ccccc12)C(=O)N[C@H](CC(N)=O)C(=O)N[C@@H](CC(=O)O)C(=O)N[C@@H]1C(=O)NCC(=O)N[C@@H](CCCN)C(=O)N[C@@H](CC(=O)O)C(=O)N[C@H](C)C(=O)N[C@@H](CC(=O)O)C(=O)NCC(=O)N[C@H](CO)C(=O)N[C@@H]([C@H](C)CC(=O)O)C(=O)N[C@@H](CC(=O)c2ccccc2N)C(=O)O[C@@H]1C [DAP, daptomycin] | > 8 µg/mL | 4 µg/mL (≈ 2.47 µM) | > 8 µg/mL | > 8 µg/mL | resistant | resistance phenotype from MIC, in words ([2]; L. crispatus CG-12): resistant
O=C(O)c1cn(C2CC2)c2cc(N3CCNCC3)c(F)cc2c1=O [CIP, ciprofloxacin] |  | > 2 µg/mL |  |  |  | resistance phenotype from MIC, in words ([2]; L. crispatus CG-12): resistant
C[C@H]1COc2c(N3CCN(C)CC3)c(F)cc3c(=O)c(C(=O)O)cn1c23 [LEVO, levofloxacin] | < 0.25 µg/mL | > 8 µg/mL | < 0.25 µg/mL | < 0.25 µg/mL |  | 
[H]/N=C(/N)N[C@H]1[C@H](O)[C@@H](O)[C@H](O[C@@H]2O[C@@H](C)[C@](O)(C=O)[C@H]2O[C@@H]2O[C@@H](CO)[C@H](O)[C@@H](O)[C@@H]2NC)[C@@H](N/C(N)=N\[H])[C@@H]1O [STR, streptomycin] | < 1000 µg/mL | < 1000 µg/mL | < 1000 µg/mL | < 1000 µg/mL |  | 
COc1c(N2CCNC(C)C2)c(F)cc2c(=O)c(C(=O)O)cn(C3CC3)c12 (stereo not drawn) [GAT, gatifloxacin] | < 1 µg/mL | 4 µg/mL (≈ 10.7 µM) | < 1 µg/mL | < 1 µg/mL |  | resistance phenotype from MIC, in words ([2]; L. crispatus CG-12): resistant
CO[C@H]1/C=C/O[C@@]2(C)Oc3c(C)c(O)c4c(O)c(c(/C=N/N5CCN(C)CC5)c(O)c4c3C2=O)NC(=O)/C(C)=C\C=C\[C@H](C)[C@H](O)[C@@H](C)[C@@H](O)[C@@H](C)[C@H](OC(C)=O)[C@@H]1C [RIF, rifampin] | 4 µg/mL (≈ 4.86 µM) | 1 µg/mL (≈ 1.22 µM) | 4 µg/mL (≈ 4.86 µM) | > 4 µg/mL |  | 
quinupristin/dalfopristin [SYN] |  |  |  |  |  | MIC ([1]; E. coli CA-1): >4 µg/mL; MIC ([2]; L. crispatus CG-12): 0.25 µg/mL; MIC ([3]; E. coli CA-20): >4 µg/mL; MIC ([4]; E. coli CA-4): >4 µg/mL
CN[C@H](CC(C)C)C(=O)N[C@H]1C(=O)N[C@@H](CC(N)=O)C(=O)N[C@H]2C(=O)N[C@H]3C(=O)N[C@H](C(=O)N[C@H](C(=O)O)c4cc(O)cc(O)c4-c4cc3ccc4O)[C@H](O)c3ccc(c(Cl)c3)Oc3cc2cc(c3O[C@@H]2O[C@H](CO)[C@@H](O)[C@H](O)[C@H]2O[C@H]2C[C@](C)(N)[C@H](O)[C@H](C)O2)Oc2ccc(cc2Cl)[C@H]1O [VAN, vancomycin] |  |  |  |  | resistant | MIC ([1]; Escherichia coli, CA1): > 128 µg/mL; MIC ([2]; Lactobacillus crispatus, CG12): < 1 µg/mL; MIC ([3]; Escherichia coli, CA20): > 128 µg/mL; MIC ([4]; Escherichia coli, CA4): > 128 µg/mL
CCC[C@@H]1C[C@@H](C(=O)N[C@@H]([C@H]2O[C@H](SC)[C@H](O)[C@@H](O)[C@H]2O)[C@H](C)Cl)N(C)C1 [CLI, clindamycin] | > 2 µg/mL | < 0.12 µg/mL | > 2 µg/mL | > 2 µg/mL |  | 
penicillin |  |  |  |  | high resistance | MIC ([1]; E. coli CA-1): >8 µg/mL; MIC ([2]; L. crispatus CG-12): 0.5 µg/mL; MIC ([3]; E. coli CA-20): >8 µg/mL; MIC ([4]; E. coli CA-4): >8 µg/mL
sulfamethoxazole/trimethoprim [SXT] |  |  |  |  |  | MIC ([2]; L. crispatus CG-12): 2/38; phenotypic susceptibility on antibiotic agar plates [6]: susceptible
CCCCCCCC/C=C\CCCCCCCC(=O)OCCOCC(OCCO)C1OCC(OCCO)C1OCCO (stereo not drawn) [Tween 80] |  |  |  |  |  | effect on fecal microbiota [7]: assisted the colonization of Proteobacteria but not the Firmicutes
CC(=O)NC[C@H]1CN(c2ccc(N3CCOCC3)c(F)c2)C(=O)O1 [LZD, linezolid] | > 8 µg/mL | 2 µg/mL (≈ 5.93 µM) | > 8 µg/mL | > 8 µg/mL | resistant | 
CC[C@H]1OC(=O)[C@H](C)[C@@H](O[C@H]2C[C@@](C)(OC)[C@@H](O)[C@H](C)O2)[C@H](C)[C@@H](O[C@@H]2O[C@H](C)C[C@H](N(C)C)[C@H]2O)[C@](C)(O)C[C@@H](C)C(=O)[C@H](C)[C@@H](O)[C@]1(C)O [ERY, erythromycin] | > 4 µg/mL | < 0.25 µg/mL | > 4 µg/mL | > 4 µg/mL | resistant | phenotypic susceptibility on antibiotic agar plates [6]: susceptible
